# Results published in patent US20160220569A1, “CDK4/6 Inhibitor Dosage Formulations For The Protection Of Hematopoietic Stem And Progenitor Cells During Chemotherapy” (G1 Therapeutics, Inc., priority 2015, published 2016).
# Like-named read-outs stand apart in the source and are kept apart here.
# Assay: 14-day oral gavage toxicokinetic study in rats
# Assay type: in vivo
# Conditions: both sexes, rat, plasma, po; for concentration at 0.5 h / concentration at 1 h / concentration at 2 h / concentration at 4 h / concentration at 8 h / concentration at 12 h / concentration at 24 h: Mean Compound 1 Plasma Concentration, rats, Overall; for half-life: read-out: t½ (converted)
# Description: Plasma was obtained from blood samples collected from rats in a composite sampling scheme, with 3 samples collected per sex, per dose, at each target collection time, as illustrated in Table 21 to Table 25. Samples were collected from the vehicle control group on Day 1 and Day 14 at 3 hour after administration. […] Blood samples were collected in tubes containing K3EDTA as an anticoagulant and placed on ice until processed to plasma via centrifugation. Samples were stored frozen at −80° C. until shipment to the bioanalytical laboratory for analysis.
# The following parameters were determined:
# Cmax: Maximum observed plasma concentration (ng/mL).
# A value of 0 ng/mL was assigned to all values below the lower limit of quantitation (BLQ, <10.0 ng/mL).
# AUC(0-inf): Area under the plasma concentration vs. time curve extrapolated from 0 to infinity (ng*h/mL), calculated as AUC(0-t)+AUC(t-inf) where AUC(t-inf) is calculated as last measurable concentration (CLast) divided by ke, where ke is the elimination rate constant determined by linear regression of the last three analytically measured points on the log plasma concentration vs. time curve. The selection criteria of the data points for inclusion in the calculation of ke required that at least three data points representing the terminal phase (after Tmax) were regressed and that R2≧0.850 when rounded.
# CL: Clearance (L/h/kg), calculated as the dose divided by AUC(0-t).
# Vd: Volume of distribution (L/kg), calculated as dose divided by the product of ke and AUC(0-inf).
# Vdss: Steady state volume of distribution (L/kg), calculated as clearance […] mean residence time, where mean residence time is calculated as the area under the first moment curve divided by AUC(0-t).
# t½: Elimination half-life (h), calculated as ln(2)/ke, where ke is the elimination rate constant determined by linear regression. Half-life was defined as not determined if regression criteria (specified in AUC(0-inf) above) were not met.
# Cmax/Dose: Normalized Cmax, calculated as Cmax divided by total dose.
# AUC/Dose: Normalized AUC, calculated as AUC(0-t) divided by total dose.
# ii. Statistical Analysis Mean and standard deviation (SD) were calculated in Watson. Values of BLQ were assigned a value of 0 ng/mL for mean calculations. Concentration values and derived TK parameters were reported to three significant figures.
# [1] = 2 mg/kg, oral 2 mg/kg, Study Day 1, Overall
# [2] = 2 mg/kg, oral 2 mg/kg, Study Day 14, Overall
# [3] = 5 mg/kg, oral 5 mg/kg, Study Day 1, Overall
# [4] = 5 mg/kg, oral 5 mg/kg, Study Day 14, Overall
compound,measurement,setting,value
"CN1CCN(c2ccc(Nc3ncc4cc5n(c4n3)C3(CCCCC3)CNC5=O)nc2)CC1 [Compound 1, 2′-((5-(4-methylpiperazin-1-yl)pyridin-2-yl)amino)-7′,8′-dihydro-6′H-spiro[cyclohexane-1,9′-pyrazino[1′,2′:1,5]pyrrolo[2,3-d]pyrimidin]-6′-one]",concentration at 0.5 h,"2 mg/kg, oral 2 mg/kg, Day 1, 0.5 h",83.7 ng/mL
same,concentration at 1 h,"2 mg/kg, oral 2 mg/kg, Day 1, 1 h",74.3 ng/mL
same,concentration at 2 h,"2 mg/kg, oral 2 mg/kg, Day 1, 2 h",149 ng/mL
same,concentration at 4 h,"2 mg/kg, oral 2 mg/kg, Day 1, 4 h",150 ng/mL
same,concentration at 8 h,"2 mg/kg, oral 2 mg/kg, Day 1, 8 h",93.6 ng/mL
same,concentration at 12 h,"2 mg/kg, oral 2 mg/kg, Day 1, 12 h",67.9 ng/mL
same,concentration at 24 h,"2 mg/kg, oral 2 mg/kg, Day 1, 24 h",6.5 ng/mL
same,concentration at 0.5 h,"2 mg/kg, oral 2 mg/kg, Day 14, 0.5 h",88.2 ng/mL
same,concentration at 1 h,"2 mg/kg, oral 2 mg/kg, Day 14, 1 h",78.5 ng/mL
same,concentration at 2 h,"2 mg/kg, oral 2 mg/kg, Day 14, 2 h",142 ng/mL
same,concentration at 4 h,"2 mg/kg, oral 2 mg/kg, Day 14, 4 h",119 ng/mL
same,concentration at 8 h,"2 mg/kg, oral 2 mg/kg, Day 14, 8 h",103 ng/mL
same,concentration at 12 h,"2 mg/kg, oral 2 mg/kg, Day 14, 12 h",51.9 ng/mL
same,concentration at 24 h,"2 mg/kg, oral 2 mg/kg, Day 14, 24 h",4.32 ng/mL
same,AUC(0-inf),[1],1770 ng·h/mL
same,AUC(0-t),[1],1730 ng·h/mL
same,Cmax,[1],150 ng/mL
same,Tmax,[1],4 h
same,half-life,[1],4 h
same,AUC(0-inf),[2],1550 ng·h/mL
same,AUC(0-t),[2],1530 ng·h/mL
same,Cmax,[2],142 ng/mL
same,Tmax,[2],2 h
same,half-life,[2],3.46 h
same,concentration at 0.5 h,"5 mg/kg, oral 5 mg/kg, Day 1, 0.5 h",252 ng/mL
same,concentration at 1 h,"5 mg/kg, oral 5 mg/kg, Day 1, 1 h",300 ng/mL
same,concentration at 2 h,"5 mg/kg, oral 5 mg/kg, Day 1, 2 h",391 ng/mL
same,concentration at 4 h,"5 mg/kg, oral 5 mg/kg, Day 1, 4 h",445 ng/mL
same,concentration at 8 h,"5 mg/kg, oral 5 mg/kg, Day 1, 8 h",318 ng/mL
same,concentration at 12 h,"5 mg/kg, oral 5 mg/kg, Day 1, 12 h",168 ng/mL
same,concentration at 24 h,"5 mg/kg, oral 5 mg/kg, Day 1, 24 h",22.1 ng/mL
same,concentration at 0.5 h,"5 mg/kg, oral 5 mg/kg, Day 14, 0.5 h",348 ng/mL
same,concentration at 1 h,"5 mg/kg, oral 5 mg/kg, Day 14, 1 h",389 ng/mL
same,concentration at 2 h,"5 mg/kg, oral 5 mg/kg, Day 14, 2 h",470 ng/mL
same,concentration at 4 h,"5 mg/kg, oral 5 mg/kg, Day 14, 4 h",430 ng/mL
same,concentration at 8 h,"5 mg/kg, oral 5 mg/kg, Day 14, 8 h",262 ng/mL
same,concentration at 12 h,"5 mg/kg, oral 5 mg/kg, Day 14, 12 h",151 ng/mL
same,concentration at 24 h,"5 mg/kg, oral 5 mg/kg, Day 14, 24 h",18 ng/mL
same,AUC(0-inf),[3],5150 ng·h/mL
same,AUC(0-t),[3],5020 ng·h/mL
same,Cmax,[3],445 ng/mL
same,Tmax,[3],4 h
same,half-life,[3],4.14 h
same,AUC(0-inf),[4],4930 ng·h/mL
same,AUC(0-t),[4],4820 ng·h/mL
same,Cmax,[4],470 ng/mL
same,Tmax,[4],2 h
same,half-life,[4],4.08 h
same,concentration at 0.5 h,"15 mg/kg, oral 15 mg/kg, Day 1, 0.5 h",899 ng/mL
same,concentration at 1 h,"15 mg/kg, oral 15 mg/kg, Day 1, 1 h",1170 ng/mL
same,concentration at 2 h,"15 mg/kg, oral 15 mg/kg, Day 1, 2 h",1490 ng/mL
same,concentration at 4 h,"15 mg/kg, oral 15 mg/kg, Day 1, 4 h",1430 ng/mL
same,concentration at 8 h,"15 mg/kg, oral 15 mg/kg, Day 1, 8 h",1230 ng/mL
same,concentration at 12 h,"15 mg/kg, oral 15 mg/kg, Day 1, 12 h",767 ng/mL
same,concentration at 24 h,"15 mg/kg, oral 15 mg/kg, Day 1, 24 h",84.5 ng/mL
